Results published in patent US20060148725A1, “Selective 11beta HSD inhibitors and methods of use thereof” (The Miriam Hospital, priority 2001, published 2006).

Tests used:
11β-HSD1 Dehydrogenase = 11β-HSD1 Dehydrogenase (Rattus norvegicus, UniProt P16232); assay: Inhibition of 11β-HSD1 dehydrogenase activity (Table 1); type: biochemical; details: inhibition class in words
11β-HSD1 Reductase = 11β-HSD1 Reductase (Rattus norvegicus, UniProt P16232); assay: Inhibition of 11β-HSD1 reductase activity (Table 1); details: inhibition class in words
11β-HSD2 Dehydrogenase = target: T1, 11β-HSD2 Dehydrogenase (Ovis aries, UniProt P50168); assay: Inhibition of 11β-HSD2 dehydrogenase activity (Table 1); type: biochemical, sheep; details: inhibition class in words
T1 construct: using 50 nM corticosterone substrate concentration and sheep kidney microsomes; from tissue; host or cells: sheep kidney microsomes
T1 sequence (P50168 1-427): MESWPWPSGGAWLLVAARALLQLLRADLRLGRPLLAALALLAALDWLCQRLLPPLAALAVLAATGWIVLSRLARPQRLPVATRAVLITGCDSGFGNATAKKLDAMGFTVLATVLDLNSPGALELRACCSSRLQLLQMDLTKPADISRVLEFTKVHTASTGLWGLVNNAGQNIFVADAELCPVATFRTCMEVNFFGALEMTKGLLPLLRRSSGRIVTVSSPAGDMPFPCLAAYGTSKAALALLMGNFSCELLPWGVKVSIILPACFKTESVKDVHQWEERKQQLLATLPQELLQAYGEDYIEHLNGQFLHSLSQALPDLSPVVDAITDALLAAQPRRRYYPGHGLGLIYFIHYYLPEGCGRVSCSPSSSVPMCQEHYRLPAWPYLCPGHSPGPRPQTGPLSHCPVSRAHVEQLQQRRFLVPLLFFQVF

rat aortic rings = details: aortic rings incubated with corticosterone; previously demonstrated; cited from earlier work

Chain of 11β-HSD1 Reductase (P16232 whole entry): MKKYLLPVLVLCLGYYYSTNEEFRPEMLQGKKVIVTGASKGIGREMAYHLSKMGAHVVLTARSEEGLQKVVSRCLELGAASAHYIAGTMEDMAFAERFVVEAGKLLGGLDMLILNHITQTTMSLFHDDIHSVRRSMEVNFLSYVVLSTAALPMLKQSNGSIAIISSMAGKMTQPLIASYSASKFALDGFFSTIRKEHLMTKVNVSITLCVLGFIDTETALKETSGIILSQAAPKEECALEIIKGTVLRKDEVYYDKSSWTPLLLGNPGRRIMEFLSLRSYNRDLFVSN
Chain of 11β-HSD1 Dehydrogenase (P16232 whole entry): as above

| Compound | 11β-HSD1 Dehydrogenase (11β-HSD1 Dehydrogenase) | 11β-HSD1 Reductase (11β-HSD1 Reductase) | 11β-HSD2 Dehydrogenase (11β-HSD2 Dehydrogenase) | effect of the steroid on contractile responses to graded phenylephrine compared to controls (rat aortic rings) |
| --- | --- | --- | --- | --- |
| C[C@]12CCC(=O)C=C1CC[C@@H]1[C@H]2C(=O)C[C@]2(C)C(=O)CC[C@H]12 (stereo in doubt) [11-Keto-androstenedione] | No Inhibition | Selective Inhibitor | No Inhibition | – |
| C[C@]12CC[C@H](O)C[C@@H]1CC[C@@H]1[C@@H]2[C@@H](O)C[C@]2(C=O)[C@@H](C(=O)CO)CC[C@@H]12 [3α,5α-reduced aldosterone] | Moderate Inhibitor | No Inhibition | Potent Inhibitor | – |
| C[C@]12CC[C@H](O)C[C@@H]1CC[C@@H]1[C@@H]2C(=O)C[C@]2(C)C(=O)CC[C@@H]12 [3α,5α-reduced-11-keto-androstenedione] | No Inhibition | Selective Inhibitor | – | – |
| C[C@]12CC[C@H](O)C[C@@H]1CC[C@H]1[C@@H]3CC[C@H](O)[C@@]3(C)CC(=O)[C@@H]12 [3α,5α-reduced-11-keto-testosterone] | No Inhibition | Selective Inhibitor | – | – |
| C[C@]12CC[C@H](O)C[C@H]1CC[C@@H]1[C@H]2[C@@H](O)C[C@]2(C)C(=O)CC[C@H]12 [3α,5α-reduced-11β-OH-androstenedione] | Moderate Inhibitor | No Inhibition | Potent Inhibitor (Non-Selective) | – |
| CC(=O)[C@H]1CC[C@H]2[C@@H]3CC[C@H]4C[C@@H](O)CC[C@]4(C)[C@H]3[C@@H](O)C[C@]12C [3α,5α-reduced-11β-OH-progesterone] | Potent Inhibitor (Non-Selective) | No Inhibition | Potent Inhibitor (Non-Selective) | – |
| C[C@]12CC[C@H](O)C[C@@H]1CC[C@@H]1[C@@H]2[C@@H](O)C[C@]2(C)[C@@H](O)CC[C@@H]12 [3α,5α-reduced-11β-OH-testosterone] | Potent Inhibitor (Non-Selective) | No Inhibition | Potent Inhibitor (Non-Selective) | – |
| C[C@]12CC[C@H](O)C[C@@H]1CC[C@@H]1[C@@H]2[C@@H](O)C[C@]2(C)[C@@H](C(=O)CO)CC[C@@H]12 [3α,5α-reduced-corticosterone] | Potent Inhibitor | No Inhibition | Potent Inhibitor | – |
| C[C@]12CC[C@H](O)C[C@@H]1CC[C@H]1[C@@H]3CC[C@H](C(=O)CO)[C@@]3(C)CC(=O)[C@@H]12 [3α,5α-tetrahydro-11-dehydro-corticosterone] | No Inhibition | Potent Inhibitor | Potent Inhibitor | – |
| CC(=O)[C@H]1CC[C@@H]2[C@@H]3CC[C@@H]4C[C@@H](O)CC[C@]4(C)[C@@H]3[C@@H](O)C[C@]12C [3α,5β-reduced-11β-OH-progesterone] | Moderate Inhibitor | No Inhibition | No Inhibition | – |
| C[C@]12CC[C@H](O)C[C@H]1CC[C@@H]1[C@H]2[C@@H](O)C[C@@]2(C)[C@@H]1CC[C@@H]2O [3α,5β-reduced-11β-OH-testosterone] | Moderate Inhibitor | No Inhibition | No Inhibition | – |
| C[C@]12CCC(=O)C[C@@H]1CC[C@@H]1[C@@H]2[C@@H](O)C[C@]2(C)[C@@H](C(=O)CO)CC[C@@H]12 [5α-dihydro-corticosterone] | Potent Inhibitor | No inhibition | Potent Inhibitor | – |
| CC(=O)[C@H]1CC[C@@H]2[C@@H]3CCC4=CC(=O)CC[C@]4(C)[C@@H]3C(=O)C[C@]12C [11-Keto-progesterone] | No Inhibition | Selective Inhibitor | Potent Inhibitor | – |
| C[C@]12CC(=O)[C@H]3[C@@H](CCC4=CC(=O)CC[C@@]43C)[C@@H]1CC[C@@H]2O [11-Keto-testosterone] | No Inhibition | Selective Inhibitor | No Inhibition | – |
| CC(=O)[C@H]1CC[C@@H]2[C@@H]3CCC4=CC(=O)CC[C@]4(C)[C@@H]3[C@@H](O)C[C@]12C [11β-OH-progesterone] | Potent Inhibitor (Non-Selective) | No Inhibition | – | – |
| C[C@]12C[C@H](O)[C@@H]3[C@@H](CCC4=CC(=O)CC[C@@]43C)[C@H]1CC[C@@H]2O [11β-OH-testosterone] | Inhibitor (Non-Selective) | No Inhibition | Inhibitor (Non-Selective) | – |
| C[C@]12C[C@H](O)[C@H]3[C@@H](CCC4=CC(=O)CC[C@@]43C)[C@@H]1CC[C@@H]2C(=O)CO [corticosterone] | – | – | – | amplified contractile responses |
| chenodeoxycholic acid | Selective inhibitor | No Inhibition | No Inhibition | – |
